Laboratory results as given in US20250236596A1, “HYDROXYLAMINE-BASED EGFR INHIBITORS FOR TREATMENT OF CANCER WITH BRAIN METASTASES” (University of Georgia Research Foundation, Inc., priority 2022, published 2025).

Assays:
[1] = test system: Ba/F3 EGFR-del E746_A750/C797S cells; experiment: CellTiter-Glo viability assay, Ba/F3 EGFR-del E746_A750/C797S; format: cell-based; settings: Mus musculus, BaF3, osimertinib-resistant, 72 h, read-out: antiproliferative IC50
Method: The A431, HCC827, SK-BR-3, ZR-75-30, AU565 and Caco-2 cell lines were obtained from ATCC. The NCI-H1975 cell line was obtained from SIBS. The NCI-H3255 cell line was obtained from CoBioer. Engineered Ba/F3 cell lines were obtained from Crown Bioscience. MCKII-MDR1 cells were obtained from the Netherlands Cancer Institute. HEK293 cells were obtained from Invitrogen. A431 cells were cultured in DMEM (Life Technologies) with 10% FBS. HCC827, NCI-H1975 and AU565 cells were cultured in RPMI1640 (Invitrogen) with 10% FBS. NCI-H3255 cells were cultured in BEGM (Lonza) with 10% FBS. Ba/F3 EGFR-del E746_A750/C797S and Ba/F3 EGFR-L858R/C797S cells were cultured in RPMI (Invitrogen) with 10% FBS. SK-BR-3 cells were cultured in McCoy's 5a (Invitrogen) with 10% FBS. ZR-75-30 cells were cultured in RPMI1640 (Invitrogen) with 20% FBS. BT474 cells were cultured in DMEM (Gibco) with 10% FBS and 10 μg/mL Insulin. Caco-2 and MCKII-MDR1 culture information is given in the permeability studies section. […]
Viability assays using A431, HCC827, NCI-H1975, NCI-H3255, Ba/F3 EGFR-del E746_A750/C797S, Ba/F3 EGFR-L858R/C797S, AU565, SK-BR-3 and ZR-75-30 cells were performed at Crown BioScience. […] Dose-response curves were generated and used to calculate the IC50 values which were calculated on GraphPad Prism from the non-linear regression equation fitted with a sigmoidal dose response and are presented as the mean±SEM.

CYP1A2 = CYP1A2 (Homo sapiens, UniProt P05177); experiment: Human CYP450 inhibition in human liver microsomes, CYP1A2; format: in vitro ADME; settings: pooled human liver microsomes, probe phenacetin (40 μM), O-demethylation
Method: Assessment of compound 15 was carried out at Pharmaron Inc. for its potential to inhibit cytochrome P450 (CYP) isoforms using human liver microsomes. The activities tested were CYP1A2-mediated phenacetin O-demethylation, CYP2C19-mediated (S)-mephenytoin 4′-hydroxylation, CYP2C9-mediated diclofenac 4′-hydroxylation, CYP2D6-mediated dextromethorphan O-demethylation and CYP3A4-mediated midazolam 1′-hydroxylation. Concentrations of substrates were phenacetin (40 μM), mephenytoin (50 μM), diclofenac (6 μM), dextromethorphan (2 μM) and midazolam (1 μM). Probe substrates phenacetin, mephenytoin and dextromethorphan were incubated at 37° for 20 min. Probe substrates diclofenac and midazolam were incubated at 37° for 5 min. […] The reactions were initiated by adding NADPH (1 mM final concentration) after a 5 min-preincubation and the assay was ran in duplicate (n=2). Samples were analyzed by UPLC-MS/MS.

[2] = test system: HCC827-luc intracranial tumor; experiment: Intracranial PDX model with luciferase-tagged HCC827 cells; format: in vivo, BALB/c nude mice; settings: 10 mg/kg PO b.i.d
Method: Animal experiments were performed at Pharmaron Inc. and animal use was approved by Pharmaron's Institutional Animal Care and Use Committee (IACUC) in Pharmaron (Pharmaron IACUC, Protocol #PK-M-07182022, #PK-R-06012022 and #ON-CELL-XEN-06012022) following the guidance of AAALAC. Six- to eight-week-old male SD rats (approximately 200-300 g) obtained from Si Bei Fu Laboratory Animal Technology Co., six- to eight-week-old male CD1 mice (approximately 20-30 g) obtained from Si Bei Fu Laboratory Animal Technology Co., and six- to eight-week-old female BALB/c nude mice (approximately 20-30 g) obtained from Si Bei Fu Laboratory Animal Technology Co., were used in the pharmacokinetic studies. Six- to eight-week-old female BALB/c nude mice (approximately 18-22 g) obtained from Beijing Anikeeper Biotech Co., Ltd were used in the intracranial PDX study. Animals were housed at 20-25° C. with humidity ranging from 40-70% relative humidity, were exposed to 12 h light and dark cycles, and were supplied with food and water ab libitum.
HCC827 cells stably expressing luciferase (HCC827-luc) were injected intracranially. Briefly, 3×10^5 HCC827-luc tumor cells suspended in 2 μL RPMI1640 medium were injected into the right forebrain of anesthetized mice (anesthetic: intramuscular injection of Zoletl™ 50 (Virbac S.A)). Mice were imaged bi-weekly using IVIS Lumina Ill (Perkin Elmer). Images were acquired 10 min post intraperitoneal (IP) injection with 15 mg/mL (at 5 μL/g body weight) of D-luciferin in anesthetized mice (anesthetic: 1-2% isoflurane inhalation). On day 20 post-cellular inoculation, mice were randomized into 2 treatment groups (n=10 mice per group): 1) 1% methylcellulose as vehicle control and 2) 15 (10 mg/kg) (formulation: 1% methylcellulose), PO, b.i.d. (twice daily) dosing (12 h intervals)×7 days for 21 days. […] Body weights of all mice were measured bi-weekly throughout the study and BW change, expressed in % was calculated using the following formula.
BW change (%)=(BWDay X/BWDay 0)×100
Where, BWDay X is the BW on a given day, and BWDay 0 is BW on Day 0 (initiation of treatment). […]

Chain of CYP1A2 (P05177 whole entry, canonical isoform): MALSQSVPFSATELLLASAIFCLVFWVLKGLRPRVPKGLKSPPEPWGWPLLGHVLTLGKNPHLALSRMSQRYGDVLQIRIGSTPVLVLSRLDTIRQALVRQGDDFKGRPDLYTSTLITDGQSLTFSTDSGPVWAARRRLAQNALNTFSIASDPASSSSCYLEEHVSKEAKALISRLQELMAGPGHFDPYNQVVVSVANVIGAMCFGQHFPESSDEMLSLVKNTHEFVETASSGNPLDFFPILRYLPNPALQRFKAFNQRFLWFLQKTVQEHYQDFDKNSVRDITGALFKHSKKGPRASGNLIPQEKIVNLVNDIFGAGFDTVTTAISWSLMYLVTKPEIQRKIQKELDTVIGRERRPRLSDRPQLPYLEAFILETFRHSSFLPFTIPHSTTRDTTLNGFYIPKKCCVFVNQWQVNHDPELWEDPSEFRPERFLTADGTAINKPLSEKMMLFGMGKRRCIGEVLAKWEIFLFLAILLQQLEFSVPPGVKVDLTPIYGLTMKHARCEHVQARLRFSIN

## COc1cc2ncnc(Nc3cccc(Cl)c3F)c2cc1OCCON1CCN(C)CC1 [Compound 15, N-(3-chloro-2-fluorophenyl)-7-methoxy-6-(2-((4-methylpiperazin-1-yl)oxy)ethoxy)quinazolin-4-amine]
[1]
  IC50: 2.5 nM
CYP1A2
  IC50 at 20 min: > 30000 nM
[2]; 21-day treatment window
  mean body weight loss: ≤ 10%
[2]; 21 days
  adverse clinical events: no adverse clinical events
[2]; 21 days, P=0.0059
  intracranial tumor response (bioluminescence) relative to vehicle control: profound tumor regression
